Results: patent US7435548B2, “Methods for producing ex vivo models for inflammatory disease and uses thereof” (deCODE genetics ehf., priority 2001, dated 2008)

Tests used:
[1] = test system: airway smooth muscle (ASM) tissues; assay: ASM constrictor responses to acetylcholine (organ bath, isometric tension); type: tissue-based, New Zealand White rabbits
Experimental: (§1) After anesthesia with xylazine (10 mg/kg) and ketamine (50 mg/kg), the animals were sacrificed with systemic air embolism.
(§2) After incubation, each airway segment was suspended longitudinally between stainless steel triangular supports in siliconized 20-mL organ baths (Harvard Apparatus, Inc., South Natick, Mass.). […] Care was taken to place the membranous portion of the trachea between the supports to maximize the recorded tension generated by the contracting trachealis muscle. […] Passive resting tension of each tracheal smooth muscle segment was set at 2.0 g after each tissue had been passively stretched to a tension of 8 g to optimize the resting length of each segment. The tissues were allowed to equilibrate in the bath for 45 minutes, at which time each tissue was primed with a 1 minute exposure to 10^−4M acetylcholine (ACh). Cholinergic contractility was initially assessed in the ASM by cumulative administration of ACh in final bath concentrations from 10^−9 to 10^−3M. […] The relaxant responses to isoproterenol were analyzed in terms of percent maximal relaxation (Rmax) from the active cholinergic contraction, and sensitivity to the relaxing agent was determined as the corresponding pD50 value associated with 50% Rmax.

human ASM cells = assay: Microarray mRNA expression (Affymetrix HU95GeneFL) in cultured ASM cells; type: cell-based
Text: Simultaneous multiple gene mRNA expression was examined in human ASM cells with the Affymetrix expression microarray system using human gene chips (HU95GeneFL array; Affymetrix, Santa Clara, Calif.) representing approximately 6000 genes. The ASM cells were derived from a donor (Clonetics Corp., San Diego, Calif.) who had no evidence of pulmonary disease, and the cells were carefully characterized by the manufacturer with specific markers to confirm their selective smooth muscle phenotype and to exclude contamination with other cell types.
Following incubation of the cells, the total RNA used for the Affymetrix microarray expression analysis was extracted and purified using commercially available reagents and in accordance with methods recommended by the manufacturer (Affymetrix, Santa Clara, Calif.). Briefly, total RNA was extracted using Trizol and purified with Qiagen RNAEASY spin columns (Qiagen GmbH, Germany). Approximately 5 μg of RNA was used for first and second strand cDNA synthesis. After precipitation, the cDNAs were transcribed to cRNAs. The biotinylated cRNA was subsequently hybridized to the Affymetrix gene chips overnight. Non-bound probes were removed by stringency washing. The hybridized chips were developed using a Streptavidin-Phycoerythrin complex and scanned. The scanned images were then analyzed with Affymetrix software and the data was examined using commercially available software programs, including Spotfire Net 5.1 (Spotfire Inc, Mass.).

[2] = test system: airway smooth muscle (ASM) tissues; assay: ASM relaxant responses to isoproterenol after half-maximal ACh contraction (organ bath); type: tissue-based, New Zealand White rabbits; conditions: control ASM
Experimental: as §1, §2

[3] = control ASM (medium alone), mean±SE

## CC(=O)OCC[N+](C)(C)C [ACh, acetylcholine]
[1]; [3]
  maximal isometric force of contraction (Tmax) to ACh: 93.7±8.9 g/g ASM weight
  pD50 (−log ED50) for ACh: 4.66±0.12 −logM

## C[C@@H]1C[C@H]2[C@@H]3CCC4=CC(=O)C=C[C@]4(C)[C@@]3(F)[C@@H](O)C[C@]2(C)[C@@]1(O)C(=O)CO [DEX, dexamethasone]
Human ASM cells; ATP-binding cassette, ABCB2/X57522, IL-1β/TNFα, presence or absence of DEX 10^−5M
  MER, ABCB2: 1.75
Human ASM cells; Adenosine monophosphate deaminase, AMPD3/D12775, IL-1β/TNFα, presence versus absence of DEX 10^−5M
  MER, AMPD3: 0.82
Human ASM cells; BCL2-related protein A1, BCL2A1/U29680, IL-1β/TNFα, presence versus absence of DEX 10^−5M
  MER, BCL2A1: 0.41
Human ASM cells; Bradykinin receptor-2, BKR2/X86163, IL-1β/TNFα, presence versus absence of DEX 10^−5M
  MER, BKR2: 0.62
Human ASM cells; CD83, CD83/Z11697, IL-1β/TNFα, presence versus absence of DEX 10^−5M
  MER, CD83: 0.56
Human ASM cells; CDC28 protein kinase-2, CKS2/X54942, IL-1β/TNFα, presence versus absence of DEX 10^−5M
  MER, CKS2: 0.80
Human ASM cells; Enhancer binding protein, CEBPD/M83667, IL-1β/TNFα, presence or absence of DEX 10^−5M
  MER, CEBPD: 1.48
Human ASM cells; Fibroblast growth factor-2, FGF2/J04513, IL-1β/TNFα, presence versus absence of DEX 10^−5M
  MER, FGF2: 0.69
Human ASM cells; Guanylate binding protein-1, GBP1/M55542, IL-1β/TNFα, presence or absence of DEX 10^−5M
  MER, GBP1: 1.22
Human ASM cells; Hydroxysteroid (11-β) dehydrogenase-1, HSD11B1/M7665, IL-1β/TNFα, presence or absence of DEX 10^−5M
  MER, HSD11B1: 2.57
Human ASM cells; Inhibin, INHBA/X57579, IL-1β/TNFα, presence versus absence of DEX 10^−5M
  MER, INHBA: 0.00
Human ASM cells; Intercellular adhesion molecule-1, ICAM-1/M24283, mRNA elicited by IL-1β/TNFα in presence versus absence of DEX 10^−5M
  MER, ICAM-1: 0.66
Human ASM cells; Interleukin-6, IL-6/X04602, IL-1β/TNFα, presence versus absence of DEX 10^−5M
  MER, IL-6: 0.89
Human ASM cells; Interleukin-8, IL-8/M28130, IL-1β/TNFα, presence versus absence of DEX 10^−5M
  MER, IL-8: 0.57
Human ASM cells; Interleukin-13 receptor-α, IL-1 RA2/U70981, IL-1β/TNFα, presence versus absence of DEX 10^−5M
  MER, Interleukin-13 receptor-α: 0.00
Human ASM cells; KIAA0247 gene product, KIAA0247/D87434, IL-1β/TNFα, presence or absence of DEX 10^−5M
  MER, KIAA0247: 1.3
Human ASM cells; Matrix metalloproteinase-3, MMP3/X05232, IL-1β/TNFα, presence versus absence of DEX 10^−5M
  MER, MMP3: 0.70
Human ASM cells; Matrix metalloproteinase-10, MMP10/X07820, IL-1β/TNFα, presence versus absence of DEX 10^−5M
  MER, MMP10: 0.00
Human ASM cells; Matrix metalloproteinase-12, MMP12/L23808, IL-1β/TNFα, presence versus absence of DEX 10^−5M
  MER, MMP12: 0.20
Human ASM cells; Mitogen-activated protein kinase kinase kinase-5, MAP3K5/U67156, IL-1β/TNFα, presence or absence of DEX 10^−5M
  MER, MAP3K5: 1.65
Human ASM cells; Monocyte-derived chemotactic protein, MDCP/HG4069, IL-1β/TNFα, presence versus absence of DEX 10^−5M
  MER, MDCP: 0.29
Human ASM cells; Nef-associated factor 1, NAF1/D30755, IL-1β/TNFα, presence versus absence of DEX 10^−5M
  MER, NAF1: 0.88
Human ASM cells; Ninjurin-1, NINJ1/U72661, IL-1β/TNFα, presence versus absence of DEX 10^−5M
  MER, NINJ1: 0.59
Human ASM cells; Nuclear factor of activated T cells-C1, NFATC1/U08015, IL-1β/TNFα, presence versus absence of DEX 10^−5M
  MER, NFATC1: 0.61
Human ASM cells; Nuclear factor of kappa light polypeptide, NFKB1/M58603, IL-1β/TNFα, presence versus absence of DEX 10^−5M
  MER, NFKB1: 0.87
Human ASM cells; Nuclear receptor subfamily 4, NR4A3/U12767, IL-1β/TNFα, presence versus absence of DEX 10^−5M
  MER, NR4A3: 0.54
Human ASM cells; PTX3 promoter, PTX3/X97748, IL-1β/TNFα, presence versus absence of DEX 10^−5M
  MER, PTX3: 0.69
Human ASM cells; Phosphodiesterase-4B, PDE4B/L20971, IL-1β/TNFα, presence versus absence of DEX 10^−5M
  MER, PDE4B: 0.40
Human ASM cells; Plasma membrane Ca^2+ ATPase, ATP2B1/J04027, IL-1β/TNFα, presence versus absence of DEX 10^−5M
  MER, ATP2B1: 0.34
Human ASM cells; Pre-B cell colony-enhancing factor, PBEF/U02020, IL-1β/TNFα, presence versus absence of DEX 10^−5M
  MER, PBEF: 0.73
Human ASM cells; Putative lymphocyte G0/G1 switch gene, G0S2/M72885, IL-1β/TNFα, presence versus absence of DEX 10^−5M
  MER, G0S2: 0.65
Human ASM cells; RANTES, RANTES/M21121, IL-1β/TNFα, presence versus absence of DEX 10^−5M
  MER, RANTES: 0.67
Human ASM cells; Signal transducer/activator of transcription 5, STAT5A/U43185, IL-1β/TNFα, presence versus absence of DEX 10^−5M
  MER, STAT5A: 0.87
Human ASM cells; Small inducible cytokine subfamily A7, SCYA7/X72308, IL-1β/TNFα, presence versus absence of DEX 10^−5M
  MER, SCYA7: 0.50
Human ASM cells; Small inducible cytokine subfamily B2, SCYB2/M57731, IL-1β/TNFα, presence versus absence of DEX 10^−5M
  MER, SCYB2: 0.52
Human ASM cells; Small inducible cytokine subfamily B3, SCYB3/X53800, IL-1β/TNFα, presence versus absence of DEX 10^−5M
  MER, SCYB3: 0.83
Human ASM cells; Small inducible cytokine subfamily B6, SCYB6/U83303, IL-1β/TNFα, presence versus absence of DEX 10^−5M
  MER, SCYB6: 0.61
Human ASM cells; Small inducible cytokine subfamily B10, SCYB10/X02530, IL-1β/TNFα, presence or absence of DEX 10^−5M
  MER, SCYB10: 1.12
Human ASM cells; Small inducible subfamily B5, SCYB5/L37036, IL-1β/TNFα, presence or absence of DEX 10^−5M
  MER, SCYB5: 1.75
Human ASM cells; Superoxide dismutase-2, SOD2/X07834, IL-1β/TNFα, presence versus absence of DEX 10^−5M
  MER, SOD2: 0.89
Human ASM cells; Tenascin C, HXB/X78565, IL-1β/TNFα, presence or absence of DEX 10^−5M
  MER, Tenascin C: 1.21
Human ASM cells; Tumor necrosis factor-α-induced protein 3, TNF-αIP3/M59465, IL-1β/TNFα, presence or absence of DEX 10^−5M
  MER, TNF-αIP3: 1.21
Human ASM cells; Tumor necrosis factor-α-induced protein 6, TNF-αIP6/M31165, IL-1β/TNFα, presence or absence of DEX 10^−5M
  MER, TNF-αIP6: 1.11
Human ASM cells; Urokinase plasminogen activator, uPA/X02419, IL-1β/TNFα, presence versus absence of DEX 10^−5M
  MER, uPA: 0.00
Human ASM cells; in the presence of DEX 10^−5M
  inhibition of IL-1β/TNFα induced mRNA expression, p50-NF-kB gene: 51%
  inhibition of IL-1β/TNFα induced mRNA expression, phosphodiesterase D4 gene: 60%
  inhibition of IL-1β/TNFα induced mRNA expression, plasma membrane Ca^2+ ATPase gene: 66%
Human ASM cells; pro-Interleukin-1β, IL-1β/X04500, IL-1β/TNFα, presence versus absence of DEX 10^−5M
  MER, pro-Interleukin-1β: 0.45
[1]; DEX 10^−5M alone
  effect on constrictor responses to ACh in control tissues: no effect
[1]; IL-1β/TNFα exposed ASM pre-treated 1 hour with DEX 10^−5M, mean±SE
  Tmax to ACh: 102.9±13.1 g/g ASM weight

## CC(C)NCC(O)c1ccc(O)c(O)c1 (stereo not drawn) [isoproterenol]
[2]; Oryctolagus cuniculus, read-out: pD50 for isoproterenol (converted)
  EC50: 813 nM
[2]
  maximal relaxation (Rmax) to isoproterenol: 57.7±7.1%
